Results: paper PMC5421785, “Citrullination only infrequently impacts peptide binding to HLA class II MHC” (PLoS ONE, 2017)
Where two headings read alike, the source gives them in different places. Square brackets hold non-standard residues; d marks the D form. Peptide text beside a SMILES is read from it. Cit = NC(=O)NCCC[C@H](N)C(=O)O

Key:
HLA-DRB1*01:01 = biological target: T1, HLA-DRB1*01:01 (Homo sapiens, UniProt P01903+P01911, A100R/D57E/F55L/F60I/F76Y/I96L/L162R/M171V/P40L/Q125E/R42F/V115G/Y59C); assay: HLA class II peptide binding, inhibition of radiolabeled peptide binding to purified MHC
T1 construct: EBV transformed homozygous cell lines were used as sources of MHC molecules; endogenous in cells; host or cells: EBV transformed homozygous cell lines

HLA-DRB1*04:01 = biological target: T2, HLA-DRB1*04:01 (Homo sapiens, UniProt P01903+P01911, A100K/A169T/F76Y/I96L/K127E/L162R/M171V/N62H/P40V/Q125Y/R42H/S133A/S149N/S66Y/V115G/V209L/W38E); assay: as above
T2 construct: EBV transformed homozygous cell lines were used as sources of MHC molecules; endogenous in cells; host or cells: EBV transformed homozygous cell lines

[1] = citrullinated 15-mer (X), purified MHC, inhibition of radiolabeled peptide binding, dash = IC50 >40,000 nM, read-out: DRB1*01:01 binding capacity, Cit peptide (IC50 nM)
[2] = citrullinated 15-mer (X), purified MHC, inhibition of radiolabeled peptide binding, dash = IC50 >40,000 nM, read-out: DRB1*04:01 binding capacity, Cit peptide (IC50 nM)
[3] = citrullinated peptide as listed (X at Cit position), read-out: DRB1*01:01 binding capacity Cit peptide (IC50 nM)
[4] = value of the wild-type (non-citrullinated) counterpart of the listed peptide, read-out: DRB1*01:01 binding capacity WT peptide (IC50 nM)
[5] = citrullinated peptide as listed (X at Cit position), read-out: DRB1*04:01 binding capacity Cit peptide (IC50 nM)
[6] = citrullinated 15-mer peptide (X = citrulline), purified HLA-DRB1*01:01, read-out: DRB1*01:01 binding capacity, Cit peptide (IC50 nM)
[7] = citrullinated 15-mer peptide (X = citrulline), purified HLA-DRB1*04:01, read-out: DRB1*04:01 binding capacity, Cit peptide (IC50 nM)
[8] = value of the wild-type (non-citrullinated) counterpart of the listed peptide, read-out: DRB1*04:01 binding capacity WT peptide (IC50 nM)

Row | SMILES | IC50 (HLA-DRB1*01:01; [1]) [nM] | IC50 (HLA-DRB1*04:01; [2]) [nM] | IC50 (HLA-DRB1*01:01; [3]) [nM] | IC50 (HLA-DRB1*04:01; [5]) [nM] | other results
1 | CC(C)C[C@H](NC(=O)[C@H](C)NC(=O)[C@H](CO)NC(=O)CN)C(=O)N[C@@H](CCCNC(=N)N)C(=O)N1CCC[C@H]1C(=O)N[C@@H](CO)C(=O)N[C@H](C(=O)N[C@@H](CO)C(=O)N[C@@H](CCCNC(N)=O)C(=O)N[C@@H](CO)C(=O)N[C@@H](CC(C)C)C(=O)N[C@@H](Cc1ccc(O)cc1)C(=O)N[C@@H](C)C(=O)N[C@@H](CO)C(=O)O)[C@@H](C)O [GSALRPSTSXSLYAS] | 25 | 803 |  |  | 
2 | CC(C)C[C@H](NC(=O)[C@H](C)NC(=O)[C@H](CO)NC(=O)CN)C(=O)N[C@@H](CCCNC(N)=O)C(=O)N1CCC[C@H]1C(=O)N[C@@H](CO)C(=O)N[C@H](C(=O)N[C@@H](CO)C(=O)N[C@@H](CCCNC(=N)N)C(=O)N[C@@H](CO)C(=O)N[C@@H](CC(C)C)C(=O)N[C@@H](Cc1ccc(O)cc1)C(=O)N[C@@H](C)C(=O)N[C@@H](CO)C(=O)O)[C@@H](C)O [GSALXPSTSRSLYAS] | 12 | 1550 |  |  | 
3 | CC(C)C[C@H](NC(=O)[C@H](CO)NC(=O)[C@H](Cc1ccccc1)NC(=O)[C@H](CC(=O)O)NC(=O)[C@@H](NC(=O)[C@H](CO)NC(=O)[C@H](CC(=O)O)NC(=O)[C@H](CCC(N)=O)NC(=O)[C@H](CC(C)C)NC(=O)[C@H](CC(C)C)NC(=O)[C@H](CCCNC(N)=O)NC(=O)[C@@H](NC(=O)CN)C(C)C)C(C)C)C(=O)N[C@@H](C)C(=O)N[C@@H](CC(=O)O)C(=O)O [GVXLLQDSVDFSLAD] | 541 | 918 |  |  | 
4 | CC[C@H](C)[C@H](N)C(=O)N[C@@H](CC(=O)O)C(=O)N[C@H](C(=O)N[C@@H](CC(=O)O)C(=O)N[C@H](C(=O)N[C@@H](CO)C(=O)N[C@@H](CCCCN)C(=O)N1CCC[C@H]1C(=O)N[C@@H](CC(=O)O)C(=O)N[C@@H](CC(C)C)C(=O)N[C@H](C(=O)N[C@@H](C)C(=O)N[C@@H](C)C(=O)N[C@@H](CC(C)C)C(=O)N[C@@H](CCCNC(N)=O)C(=O)O)[C@@H](C)O)C(C)C)C(C)C [IDVDVSKPDLTAALX] (H-IDVDVSKPDLTAAL[Cit]-OH) | 935 | 23500 |  |  | 
5 | CC[C@H](C)[C@H](N)C(=O)N[C@@H](CCCNC(=N)N)C(=O)N[C@@H](C)C(=O)N[C@@H](CCC(=O)O)C(=O)NCC(=O)N[C@@H](CC(N)=O)C(=O)N[C@@H](CO)C(=O)N[C@@H](CCCNC(N)=O)C(=O)N[C@@H](Cc1ccccc1)C(=O)N[C@H](C(=O)N[C@@H](Cc1ccc(O)cc1)C(=O)N[C@H](C(=O)N[C@@H](C)C(=O)N[C@@H](CC(C)C)C(=O)N[C@@H](CCCCN)C(=O)O)[C@@H](C)O)[C@@H](C)O [IRAEGNSXFTYTALK] (H-IRAEGNS[Cit]FTYTALK-OH) |  |  | 0.6 | 849 | IC50 (HLA-DRB1*01:01; [4]): 1.3 nM
6 | CC[C@H](C)[C@H](N)C(=O)N[C@@H](CO)C(=O)N[C@@H](CC(C)C)C(=O)N1CCC[C@H]1C(=O)N[C@@H](CC(C)C)C(=O)N1CCC[C@H]1C(=O)N[C@@H](CC(N)=O)C(=O)N[C@@H](Cc1ccccc1)C(=O)N[C@@H](CO)C(=O)N[C@@H](CO)C(=O)N[C@@H](CC(C)C)C(=O)N[C@@H](CC(N)=O)C(=O)N[C@@H](CC(C)C)C(=O)N[C@@H](CCCNC(N)=O)C(=O)N[C@@H](CCC(=O)O)C(=O)O [ISLPLPNFSSLNLXE] |  |  |  |  | IC50 (HLA-DRB1*01:01; [6]): 309 nM; IC50 (HLA-DRB1*04:01; [7]): 4480 nM
7 | CC[C@H](C)[C@H](N)C(=O)N[C@@H](CCCNC(N)=O)C(=O)N[C@@H](C)C(=O)N[C@@H](CCC(=O)O)C(=O)NCC(=O)N[C@@H](CC(N)=O)C(=O)N[C@@H](CO)C(=O)N[C@@H](CCCNC(=N)N)C(=O)N[C@@H](Cc1ccccc1)C(=O)N[C@H](C(=O)N[C@@H](Cc1ccc(O)cc1)C(=O)N[C@H](C(=O)N[C@@H](C)C(=O)N[C@@H](CC(C)C)C(=O)N[C@@H](CCCCN)C(=O)O)[C@@H](C)O)[C@@H](C)O [IXAEGNSRFTYTALK] (H-I[Cit]AEGNSRFTYTALK-OH) |  |  | 0.62 | 2310 | IC50 (HLA-DRB1*01:01; [4]): 1.3 nM; IC50 (HLA-DRB1*04:01; [8]): 794 nM
8 | CC(C)C[C@H](NC(=O)CNC(=O)[C@@H]1CCCN1C(=O)[C@H](C)NC(=O)CNC(=O)[C@@H]1CCCN1C(=O)[C@H](CC(C)C)NC(=O)CNC(=O)[C@H](CCCCN)NC(=O)[C@H](CCC(=O)O)NC(=O)CNC(=O)[C@H](C)NC(=O)[C@@H](N)CCCCN)C(=O)N[C@@H](CCCNC(N)=O)C(=O)NCC(=O)O [KAGEKGLPGAPGLXG] (H-KAGEKGLPGAPGL[Cit]G-OH) |  |  |  |  | IC50 (HLA-DRB1*01:01; [6]): 578 nM; IC50 (HLA-DRB1*04:01; [7]): > 40000 nM
9 | CSCC[C@H](NC(=O)[C@H](Cc1ccc(O)cc1)NC(=O)[C@H](CCC(N)=O)NC(=O)[C@H](CC(C)C)NC(=O)[C@@H]1CCCN1C(=O)[C@H](CC(=O)O)NC(=O)[C@@H]1CCCN1C(=O)CNC(=O)[C@@H](N)CCCCN)C(=O)N[C@@H](CCCNC(N)=O)C(=O)N[C@@H](C)C(=O)N[C@@H](CC(=O)O)C(=O)N[C@@H](CCC(N)=O)C(=O)N[C@@H](C)C(=O)N[C@@H](C)C(=O)O [KGPDPLQYMXADQAA] (H-KGPDPLQYM[Cit]ADQAA-OH) |  |  | 9.2 | 45 | 
10 | CC[C@H](C)[C@H](NC(=O)[C@H](CC(=O)O)NC(=O)[C@H](CCSC)NC(=O)[C@@H]1CCCN1C(=O)[C@H](C)NC(=O)[C@@H](NC(=O)[C@H](CC(=O)O)NC(=O)[C@@H](NC(=O)[C@@H](NC(=O)[C@@H]1CCCN1C(=O)[C@H](CC(C)C)NC(=O)[C@H](CCCNC(N)=O)NC(=O)[C@H](CO)NC(=O)[C@@H](NC(=O)[C@@H](N)CCCCN)[C@@H](C)O)[C@@H](C)CC)[C@@H](C)CC)[C@@H](C)CC)C(=O)O [KTSXLPIIDIAPMDI] (H-KTS[Cit]LPIIDIAPMDI-OH) |  |  | 634 | 7060 | IC50 (HLA-DRB1*01:01; [4]): 361 nM; IC50 (HLA-DRB1*04:01; [8]): 8750 nM
11 | CC[C@H](C)[C@H](NC(=O)CNC(=O)[C@H](CCCNC(=N)N)NC(=O)[C@H](CCC(N)=O)NC(=O)CNC(=O)[C@H](C)NC(=O)[C@@H](N)CC(C)C)C(=O)N[C@H](C(=O)NCC(=O)N[C@@H](CC(C)C)C(=O)N1CCC[C@H]1C(=O)NCC(=O)N[C@@H](CCC(N)=O)C(=O)N[C@@H](CCCNC(N)=O)C(=O)NCC(=O)O)C(C)C [LAGQRGIVGLPGQXG] (H-LAGQRGIVGLPGQ[Cit]G-OH) |  |  |  |  | IC50 (HLA-DRB1*01:01; [6]): 1.3 nM; IC50 (HLA-DRB1*04:01; [7]): 5040 nM
12 | CC[C@H](C)[C@H](NC(=O)CNC(=O)[C@H](CCCNC(N)=O)NC(=O)[C@H](CCC(N)=O)NC(=O)CNC(=O)[C@H](C)NC(=O)[C@@H](N)CC(C)C)C(=O)N[C@H](C(=O)NCC(=O)N[C@@H](CC(C)C)C(=O)N1CCC[C@H]1C(=O)NCC(=O)N[C@@H](CCC(N)=O)C(=O)N[C@@H](CCCNC(=N)N)C(=O)NCC(=O)O)C(C)C [LAGQXGIVGLPGQRG] (H-LAGQ[Cit]GIVGLPGQRG-OH) |  |  |  |  | IC50 (HLA-DRB1*01:01; [6]): 13 nM; IC50 (HLA-DRB1*04:01; [7]): 10500 nM
13 | CSCC[C@H](NC(=O)[C@H](CCC(N)=O)NC(=O)[C@@H](NC(=O)[C@H](CC(N)=O)NC(=O)[C@H](C)NC(=O)[C@@H](NC(=O)[C@H](CC(N)=O)NC(=O)[C@@H]1CCCN1C(=O)[C@H](C)NC(=O)[C@@H](N)CC(C)C)[C@@H](C)O)C(C)C)C(=O)N[C@H](C(=O)N[C@@H](Cc1ccccc1)C(=O)N[C@@H](CC(C)C)C(=O)N[C@@H](CCCNC(N)=O)C(=O)N[C@@H](CC(C)C)C(=O)O)[C@@H](C)O [LAPNTANVQMTFLXL] (H-LAPNTANVQMTFL[Cit]L-OH) |  |  | 54 | 17400 | 
14 | CSCC[C@H](NC(=O)[C@H](CCC(=O)O)NC(=O)[C@H](CCC(=O)O)NC(=O)[C@H](CCC(=O)O)NC(=O)[C@H](Cc1ccc(O)cc1)NC(=O)[C@H](CC(C)C)NC(=O)[C@H](CC(=O)O)NC(=O)CNC(=O)[C@@H](N)CC(C)C)C(=O)N[C@@H](CCCNC(=N)N)C(=O)N[C@@H](CCC(=O)O)C(=O)N[C@@H](CC(C)C)C(=O)N[C@@H](CCCNC(=N)N)C(=O)N[C@@H](CCCNC(N)=O)C(=O)N[C@@H](CCC(N)=O)C(=O)O [LGDLYEEEMRELRXQ] | 14800 | > 40000 |  |  | 
15 | CSCC[C@H](NC(=O)[C@H](CCC(=O)O)NC(=O)[C@H](CCC(=O)O)NC(=O)[C@H](CCC(=O)O)NC(=O)[C@H](Cc1ccc(O)cc1)NC(=O)[C@H](CC(C)C)NC(=O)[C@H](CC(=O)O)NC(=O)CNC(=O)[C@@H](N)CC(C)C)C(=O)N[C@@H](CCCNC(=N)N)C(=O)N[C@@H](CCC(=O)O)C(=O)N[C@@H](CC(C)C)C(=O)N[C@@H](CCCNC(N)=O)C(=O)N[C@@H](CCCNC(=N)N)C(=O)N[C@@H](CCC(N)=O)C(=O)O [LGDLYEEEMRELXRQ] | 12500 | > 40000 |  |  | 
16 | CSCC[C@H](NC(=O)[C@H](CCC(=O)O)NC(=O)[C@H](CCC(=O)O)NC(=O)[C@H](CCC(=O)O)NC(=O)[C@H](Cc1ccc(O)cc1)NC(=O)[C@H](CC(C)C)NC(=O)[C@H](CC(=O)O)NC(=O)CNC(=O)[C@@H](N)CC(C)C)C(=O)N[C@@H](CCCNC(N)=O)C(=O)N[C@@H](CCC(=O)O)C(=O)N[C@@H](CC(C)C)C(=O)N[C@@H](CCCNC(=N)N)C(=O)N[C@@H](CCCNC(=N)N)C(=O)N[C@@H](CCC(N)=O)C(=O)O [LGDLYEEEMXELRRQ] | 13800 | > 40000 |  |  | 
